Experiments:
FLT3 = molecular target: T1, FLT3 (Homo sapiens, UniProt P36888); experiment: TR-FRET kinase activity assay, FLT3; assay type: biochemical; conditions: ATP at Km, 60 minutes
T1 sequence (P36888 27-993): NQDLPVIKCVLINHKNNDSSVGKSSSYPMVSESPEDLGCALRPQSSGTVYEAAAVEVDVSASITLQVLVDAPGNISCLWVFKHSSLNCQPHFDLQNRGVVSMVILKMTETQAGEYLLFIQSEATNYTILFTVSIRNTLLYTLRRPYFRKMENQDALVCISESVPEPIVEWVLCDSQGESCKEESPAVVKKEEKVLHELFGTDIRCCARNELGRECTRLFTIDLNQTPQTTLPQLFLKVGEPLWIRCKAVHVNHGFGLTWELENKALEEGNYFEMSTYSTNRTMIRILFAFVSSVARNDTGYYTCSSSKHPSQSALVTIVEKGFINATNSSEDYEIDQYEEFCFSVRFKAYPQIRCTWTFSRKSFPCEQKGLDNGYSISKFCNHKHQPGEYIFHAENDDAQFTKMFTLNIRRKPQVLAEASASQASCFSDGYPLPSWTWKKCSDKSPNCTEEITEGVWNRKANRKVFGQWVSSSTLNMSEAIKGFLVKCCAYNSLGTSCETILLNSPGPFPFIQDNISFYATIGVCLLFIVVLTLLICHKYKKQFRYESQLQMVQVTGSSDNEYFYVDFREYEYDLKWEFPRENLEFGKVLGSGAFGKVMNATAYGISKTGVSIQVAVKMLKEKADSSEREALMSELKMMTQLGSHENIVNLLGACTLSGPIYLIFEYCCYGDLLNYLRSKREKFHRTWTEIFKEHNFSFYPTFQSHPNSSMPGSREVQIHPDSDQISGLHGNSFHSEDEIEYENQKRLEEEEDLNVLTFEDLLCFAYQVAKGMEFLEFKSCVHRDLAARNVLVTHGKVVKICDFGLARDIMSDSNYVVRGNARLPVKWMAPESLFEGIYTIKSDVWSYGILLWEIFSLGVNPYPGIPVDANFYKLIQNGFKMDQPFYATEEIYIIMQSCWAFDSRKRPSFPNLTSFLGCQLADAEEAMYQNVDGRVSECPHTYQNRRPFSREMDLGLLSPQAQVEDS
Experimental: (§1) IC50 values for compound inhibition of AXL, FLT3, MERTK and TYRO3 activity were determined by using a TR-FRET activity assay. A polypeptide substrate with a fluorescent label is phosphorylated on a tyrosine by each enzyme, where the now phosphorylated product is bound by a Europium-labeled antibody specific to that phosphorylation site. The proximity between the antibody and the substrate gives a signal known as TR-FRET. As the enzyme is inhibited by compound, less phosphorylated peptide product is made causing a decrease in overall signal.
(§2) Activity assays were performed in a 384-well, small volume, black microplates in an active enzyme volume of 10 μL and final developed volume of 20 μL. Final assay conditions are 50 mM HEPES pH 7.5, 10 mM MgCl2, 1 mM EGTA, 0.01% Brij 35 and 1 mM DTT all at RT. Enzyme, substrate labeled peptide and compound are mixed, and then the reaction is initiated with the addition of ATP at Km concentration for each enzyme. The reaction is allowed to run 60 minutes and then quenched with a 12.5 mM EDTA (ethylenediamine tetraacetic acid) solution. The plate is then developed with the addition of Europium labeled antibody for a final volume of 20 μL and is then incubated for 30 minutes in darkness. Plates are read in a Pherastar plate reader. Data is analyzed in GraphPad PRISM.
(§3) The results of these assays are shown in Table 1, below, wherein “No.” designates compound number (FIG. 1); “A” represents a value of ≤100 nM; “B” a value of >100 nM and ≤1 μM; “C” a value of >1 μM and ≤10 μM; “D” a value of >10 μM; “ND” is not determined. The ratio of Mer to FLT3 is calculated as follows: FLT3 IC50/Mer IC50. “+” represents a ratio of >2.0 and <10; “++” represents a ratio of between 10 and 100; and “+++” represents a ratio of >100.

MERTK = molecular target: T2, MERTK (Homo sapiens, UniProt Q12866); experiment: TR-FRET kinase activity assay, MERTK; assay type: biochemical; conditions: for IC50: TR-FRET activity assay, ATP at Km, 60 minutes, read-out: Mer IC50; for FLT3/Mer ratio (FLT3 IC50/Mer IC50): ratio of Mer to FLT3: FLT3 IC50/Mer IC50
T2 sequence (Q12866 21-999): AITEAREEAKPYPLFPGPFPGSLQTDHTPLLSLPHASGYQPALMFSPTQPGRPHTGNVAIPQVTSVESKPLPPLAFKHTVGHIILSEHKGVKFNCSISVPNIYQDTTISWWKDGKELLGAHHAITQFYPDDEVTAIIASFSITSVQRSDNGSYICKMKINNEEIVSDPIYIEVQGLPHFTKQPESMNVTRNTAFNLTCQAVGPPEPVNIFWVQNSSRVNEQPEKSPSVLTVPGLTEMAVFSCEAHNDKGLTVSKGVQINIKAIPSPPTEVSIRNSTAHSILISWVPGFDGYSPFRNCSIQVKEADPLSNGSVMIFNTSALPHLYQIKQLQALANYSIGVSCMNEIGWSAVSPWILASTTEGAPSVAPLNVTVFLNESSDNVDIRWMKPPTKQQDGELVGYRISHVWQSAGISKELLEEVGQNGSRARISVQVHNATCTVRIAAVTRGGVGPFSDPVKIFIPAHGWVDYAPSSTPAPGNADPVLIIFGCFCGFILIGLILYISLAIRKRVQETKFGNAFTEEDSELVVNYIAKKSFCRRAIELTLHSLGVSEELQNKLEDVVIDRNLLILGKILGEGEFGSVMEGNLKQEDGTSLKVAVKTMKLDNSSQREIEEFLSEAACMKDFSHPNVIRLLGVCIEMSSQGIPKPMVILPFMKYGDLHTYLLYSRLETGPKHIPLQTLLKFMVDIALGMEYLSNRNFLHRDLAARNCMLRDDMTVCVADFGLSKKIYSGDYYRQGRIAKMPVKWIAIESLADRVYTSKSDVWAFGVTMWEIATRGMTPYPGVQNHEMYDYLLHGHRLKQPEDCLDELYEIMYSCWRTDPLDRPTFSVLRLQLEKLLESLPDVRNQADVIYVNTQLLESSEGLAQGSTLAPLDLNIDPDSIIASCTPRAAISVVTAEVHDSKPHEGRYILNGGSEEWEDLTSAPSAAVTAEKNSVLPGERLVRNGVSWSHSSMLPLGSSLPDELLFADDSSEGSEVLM
Experimental: as §1, §2, §3

Structure (SMILES) | IC50 (FLT3) | IC50 (MERTK) | FLT3/Mer ratio (FLT3 IC50/Mer IC50) (MERTK)
COC[C@H](C)Nc1ncc2c(-c3ccc(C)nc3)cc([C@H]3CC[C@H](O)CC3)n2n1 [Compound 246] | 100 to 1000 nM | ≤ 100 nM | +++ (“+++” represents a ratio of >100)
COC[C@H](C)Nc1ncc2c(-c3ccc(C(=O)NC(C)C)nc3)cc([C@H]3CC[C@H](O)CC3)n2n1 [Compound 228, 5-(7-((1r,4S)-4-hydroxycyclohexyl)-2-(((S)-1-methoxypropan-2-yl)amino)pyrrolo[2,1-f][1,2,4]triazin-5-yl)-N-isopropylpicolinamide] | 1000 to 10000 nM | ≤ 100 nM | +++ (“+++” represents a ratio of >100)
CNC(=O)c1cncc(-c2cc([C@H]3CC[C@H](O)CC3)n3nc(N[C@@H](C)COC)ncc23)c1 [Compound 245] | 1000 to 10000 nM | ≤ 100 nM | +++ (“+++” represents a ratio of >100)
COC[C@H](C)Nc1ncc2c(-c3ccc4c(c3)NC(=O)C4)cc([C@H]3CC[C@H](O)CC3)n2n1 [Compound 249] | 100 to 1000 nM | ≤ 100 nM | +++ (“+++” represents a ratio of >100)
Cc1cc(-c2cc([C@H]3CC[C@H](O)CC3)n3nc(N[C@@H](C)COC(C)C)ncc23)ccn1 [Compound 215] | 1000 to 10000 nM | ≤ 100 nM | +++ (“+++” represents a ratio of >100)
COC[C@H](C)Nc1ncc2c(-c3cnn(CC(=O)N(C)C)c3)cc([C@H]3CC[C@H](O)CC3)n2n1 [Compound 238] | 100 to 1000 nM | ≤ 100 nM | +++ (“+++” represents a ratio of >100)
COCC(C)Nc1ncc2c(-c3cccc(CN4CCC(F)C4)c3)cc(C3CCC(O)CC3)n2n1 (stereo not drawn) [Compound 225] | 100 to 1000 nM | ≤ 100 nM | +++ (“+++” represents a ratio of >100)
Cc1cc(-c2cc([C@H]3CC[C@H](O)CC3)n3nc(N[C@@H](C)CC(F)(F)F)ncc23)cnn1 [Compound 268] | 100 to 1000 nM | ≤ 100 nM | +++ (“+++” represents a ratio of >100)
COC[C@H](C)Nc1ncc2c(-c3cncc(C(N)=O)c3)cc([C@H]3CC[C@H](O)CC3)n2n1 [Compound 247] | 1000 to 10000 nM | ≤ 100 nM | +++ (“+++” represents a ratio of >100)
COC[C@H](C)Nc1ncc2c(-c3cnc(C)o3)cc([C@H]3CC[C@H](O)CC3)n2n1 [Compound 261] | 1000 to 10000 nM | ≤ 100 nM | +++ (“+++” represents a ratio of >100)
CCCCC[C@H](C)Nc1ncc2c(-c3ccc(CN4CCN(C)CC4)cc3)cc([C@H]3CC[C@H](O)CC3)n2n1 [Compound 104] | 100 to 1000 nM | ≤ 100 nM | ++ (“++” represents a ratio of between 10 and 100)
COC[C@H](C)Nc1ncc2c(-c3cnn(CC4(C#N)CC4)c3)cc([C@H]3CC[C@H](O)CC3)n2n1 [Compound 266] | 100 to 1000 nM | ≤ 100 nM | +++ (“+++” represents a ratio of >100)
C[C@@H](CC1CC1)Nc1ncc2c(-c3ccc(CN4CCN(C)CC4)cc3)cc([C@H]3CC[C@H](O)CC3)n2n1 [Compound 216] | ≤ 100 nM | ≤ 100 nM | ++ (“++” represents a ratio of between 10 and 100)
CCCCCC(C)Nc1ncc2c(C3=CCC(C(=O)N4CCOCC4)CC3)cc(C3CCC(O)CC3)n2n1 (mixture of isomers) [Compound 110] | 100 to 1000 nM | ≤ 100 nM | ++ (“++” represents a ratio of between 10 and 100)
COC[C@H](C)Nc1ncc2c(-c3ccc(C)cn3)cc([C@H]3CC[C@H](O)CC3)n2n1 [Compound 258] | 1000 to 10000 nM | ≤ 100 nM | ++ (“++” represents a ratio of between 10 and 100)
COC[C@H](C)Nc1ncc2c(-c3cncc(C)c3)cc([C@H]3CC[C@H](O)CC3)n2n1 [Compound 231] | 1000 to 10000 nM | ≤ 100 nM | +++ (“+++” represents a ratio of >100)
COC[C@H](C)Nc1ncc2c(-c3ccc(N4CCN(C)CC4)nc3)cc([C@H]3CC[C@H](O)CC3)n2n1 [Compound 271] | ≤ 100 nM | ≤ 100 nM | ++ (“++” represents a ratio of between 10 and 100)
COC[C@H](C)Nc1ncc2c(-c3cncc(C#N)c3)cc([C@H]3CC[C@H](O)CC3)n2n1 [Compound 201] | 1000 to 10000 nM | ≤ 100 nM | +++ (“+++” represents a ratio of >100)

Other lines, results leading:

IC50 (FLT3) | IC50 (MERTK) | FLT3/Mer ratio (FLT3 IC50/Mer IC50) (MERTK) | Structure (SMILES)
1000 to 10000 nM | ≤ 100 nM | +++ (“+++” represents a ratio of >100) | C[C@H](Nc1ncc2c(-c3ccc(CN4CCOCC4)cc3)cc([C@H]3CC[C@H](O)CC3)n2n1)[C@@H]1CCCO1 [Compound 205]
1000 to 10000 nM | ≤ 100 nM | +++ (“+++” represents a ratio of >100) | COC[C@H](C)Nc1ncc2c(-c3cncc(CN4CCOCC4)c3)cc([C@H]3CC[C@H](O)CC3)n2n1 [Compound 219]
100 to 1000 nM | ≤ 100 nM | +++ (“+++” represents a ratio of >100) | COC[C@H](C)Nc1ncc2c(-c3ccc(N4CCOCC4)nc3)cc([C@H]3CC[C@H](O)CC3)n2n1 [Compound 254]
1000 to 10000 nM | ≤ 100 nM | +++ (“+++” represents a ratio of >100) | COC[C@H](C)Nc1ncc2c(-c3cncc(C(=O)N4CCCC4)c3)cc([C@H]3CC[C@H](O)CC3)n2n1 [Compound 232]
100 to 1000 nM | ≤ 100 nM | +++ (“+++” represents a ratio of >100) | COC[C@H](C)Nc1ncc2c(-c3cnn([C@@H]4CCOC4)c3)cc([C@H]3CC[C@H](O)CC3)n2n1 [Compound 242]
